pIC50: −log10 of the molar value.
Target: T1, Human CARM1 (PRMT4) (Homo sapiens, UniProt Q86X55)
T1 construct: Flag-CARM1-His; made in house; host or cells: HEK 293F cells (BacMam baculovirus, pFastBacMam)
T1 sequence (Q86X55 2-585 isoform Q86X55-1): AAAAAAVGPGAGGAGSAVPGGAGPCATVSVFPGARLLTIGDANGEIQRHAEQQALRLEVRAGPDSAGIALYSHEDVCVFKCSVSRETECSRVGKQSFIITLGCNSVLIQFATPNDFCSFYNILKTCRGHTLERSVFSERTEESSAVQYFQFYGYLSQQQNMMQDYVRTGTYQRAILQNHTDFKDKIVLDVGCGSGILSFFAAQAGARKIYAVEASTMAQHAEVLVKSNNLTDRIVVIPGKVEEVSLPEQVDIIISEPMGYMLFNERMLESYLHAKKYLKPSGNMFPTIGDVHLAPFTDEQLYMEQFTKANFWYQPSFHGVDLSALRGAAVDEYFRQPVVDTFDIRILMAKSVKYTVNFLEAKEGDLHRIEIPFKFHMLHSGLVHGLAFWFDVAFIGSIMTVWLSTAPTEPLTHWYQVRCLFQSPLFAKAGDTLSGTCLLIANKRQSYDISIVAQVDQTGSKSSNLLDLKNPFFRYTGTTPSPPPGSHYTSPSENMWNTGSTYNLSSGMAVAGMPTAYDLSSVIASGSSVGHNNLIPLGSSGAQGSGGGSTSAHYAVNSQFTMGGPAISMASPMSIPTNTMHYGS
Assay: CARM1 biochemical assay (3H-SAM Flashplate, peptide substrate)
Conditions: read-out: CARM1_ IC50
Summary of the method: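 FLAG/His-tagged human CARM1 (isoform 1, Δ539-561, baculovirus-expressed), 0.25 nM, preincubated 30 min at room temperature with compound (2% DMSO) in 20 mM Bicine pH 7.6, then reacted with 30 nM 3H-SAM and 250 nM biotinylated H3 16-30 peptide (R26 monomethyl). Stopped with 300 uM cold SAM; labelled peptide captured on streptavidin Flashplate; % inhibition versus DMSO and 1 mM SAH controls fitted to a 4- or 3-parameter curve.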

pIC50 | SMILES
7.77 | CNCCN(C)Cc1cccc(-c2nc(NCc3nccs3)c3cnn(C4CC4)c3n2)c1 [Compound 2]
8.05 | CNCCN(C)Cc1cccc(-c2nc(C(=O)NCc3cn4ccsc4n3)c3cnn(C4CC4)c3n2)c1 [Compound 180]
7.99 | CNCCN(C)Cc1cccc(-c2cc(C(=O)NCc3ccncc3)c3cnn(C(C)C)c3n2)c1 [Compound 182]
7.20 | CC(C)n1ncc2c(C(=O)N(C)CC3CCOCC3)cc(-c3cccc(CN(C)CCN)c3)nc21 [Compound 256]
7.14 | CN(CCN)Cc1cccc(-c2ccc(C(=O)NCC3CCOCC3)c(N(C)CC3CC3)c2)c1 [Compound 263]
6.69 | CNCCN(C)Cc1cccc(-c2cc(C(=O)N(C)Cc3ccccn3)c3cnn(C(C)C)c3n2)c1 [Compound 300]
4.30 | Cc1cc(C)c(CNC(=O)c2cc(-c3ccc(CNCCN(C)C)cc3)nc3c2cnn3C(C)C)c(=O)[nH]1 [Compound 359]
5.70 | CNCCN(C)Cc1ccc(-c2cc(C(=O)NCc3c(C)cc(C)[nH]c3=O)c(C)c3n[nH]cc23)cc1 [Compound 362]
7.84 | Cc1cc(C)c(CNC(=O)c2cc(-c3cccc(CNCCN)c3)nc3c2cnn3C(C)C)c(=O)[nH]1 [Compound 365]
5.14 | CNCCN(C)Cc1ccc(-c2cc(C(=O)NCc3c(C)cc(C)[nH]c3=O)c(C)c3nn(C4CCCC4)cc23)cc1 [Compound 370]
4.55 | Cc1cc(C)c(CNC(=O)c2cc(CNCCN(C)C)cc3c2cnn3C2CCCC2)c(=O)[nH]1 [Compound 371]
4.71 | Cc1cc(C)c(CNC(=O)c2cncc(-c3ccc(CN(C)CCN(C)C)cc3)c2)c(=O)[nH]1 [Compound 378]
5.18 | Cc1cc(C)c(CNC(=O)c2cncc(-c3ccc(CNCCN)cc3)c2)c(=O)[nH]1 [Compound 379]
8.05 | CNCCN(C)Cc1cccc(-c2cc(C(=O)NCCCCCC(=O)NCc3c(C)cc(C)[nH]c3=O)c3cnn(C(C)C)c3n2)c1 [Compound 382]
7.73 | CNCCN(C)Cc1cccc(-c2cc(C(=O)NCCC(=O)NCc3c(C)cc(C)[nH]c3=O)c3cnn(C(C)C)c3n2)c1 [Compound 384]
8.15 | CNCCN(C)Cc1cccc(-c2cc(C(=O)NCCCCC(=O)NCc3c(C)cc(C)[nH]c3=O)c3cnn(C(C)C)c3n2)c1 [Compound 385]
6.85 | COc1nc(C)cc(C)c1CNC(=O)c1cc(-c2cccc(CNCCN)c2)nc2c1cnn2C(C)C [Compound 391]

SMILES | pIC50
Cc1cc(C)c(CNC(=O)c2cc(-c3cccc(CN(C)CCN)c3)nc3c2cnn3C(C)C)c(=O)[nH]1 [Compound 360] | 7.71
Cc1cc(C)c(CNC(=O)c2cc(-c3cccc(CN(C)CCN(C)C)c3)nc3c2cnn3C(C)C)c(=O)[nH]1 [Compound 361] | 6.60
Cc1cc(C)c(CNC(=O)c2cc(-c3cccc(CNCCN)c3)cc3[nH]ncc23)c(=O)[nH]1 [Compound 366] | 5.86
CNCCN(C)Cc1cccc(-c2cc(C(=O)NCc3c(C)cc(C)[nH]c3=O)c3cnn(C(C)C)c3c2)c1 [Compound 367] | 6.74
CNCCN(C)Cc1cccc(-c2cc(C(=O)NCc3c(C)cc(C)[nH]c3=O)c3cnn(C(C)C)c3n2)c1 [Compound 368] | 8.21
CNCCN(C)Cc1cccc(-c2cc(C(=O)NCc3c(C)cc(C)[nH]c3=O)c(C)c3[nH]ncc23)c1 [Compound 372] | 5.37
CNCCN(C)Cc1ccc(-c2cncc(C(=O)NCc3c(C)cc(C)[nH]c3=O)c2)cc1 [Compound 373] | 5.24
Cc1cc(C)c(CNC(=O)c2cncc(-c3ccc(CN(C)CCN)cc3)c2)c(=O)[nH]1 [Compound 374] | 5.01
CNCCN(C)Cc1cccc(-c2cc(C(=O)NCCCC(=O)NCc3c(C)cc(C)[nH]c3=O)c3cnn(C(C)C)c3n2)c1 [Compound 383] | 8.08
COc1nc(C)cc(C)c1CNC(=O)c1cc(-c2cccc(CN(C)CCN(C)C)c2)nc2c1cnn2C(C)C [Compound 386] | 6.68

From patent US20170280720A1, “ARGININE […] INHIBITORS AND USES THEREOF” (EPIZYME, INC., priority 2014, published 2017)
